1 compound from patent publication US6410577B1, “Substituted 8,8a-dihydro-3ah-indeno[1,2-d]thiazoles, processes for their preparation and their use as medicaments” (Aventis Pharma Deutschland GmbH, priority 2000, dated 2002) can be followed below.

This test has as its system female NMRI mice. Put plainly: Anorectic action: milk consumption of fasted mice after oral administration. In kind it is in vivo, mouse. The method, then:
The efficacy of the compounds was tested as follows:
The anorectic action was tested on female NMRI mice. After withdrawal of food for 24 hours, a test preparation of the invention was administered via a stomach tube. Kept individually and with free access to drinking water, the animals were offered evaporated milk 30 minutes after the administration of the preparation. The consumption of evaporated milk was determined half-hourly for 1.5 hours and the general condition of the animals was observed. The measured milk consumption was compared with that of untreated control animals.

For `OC1c2cc(Cl)ccc2C2(O)N=C(c3ccccc3)SC12` (centres unmarked) [Example 1, 6-Chloro-2-phenyl-8,8a-dihydroindeno[1,2-d]thiazole-3a,8-diol], the “cumulated milk consumption of the treated animals” value (food withdrawn for 24 hours, oral dose 30 mg/kg via stomach tube, evaporated milk offered 30 minutes after administration, consumption determined half-hourly for 1.5 hours) is reported as 5/1.06 ml. Further, where the note is “oral dose 30 mg/kg, compared to untreated control animals, 1.5 hours”, the “Reduction of the cumulated milk consumption in % of the control” value is 31%.
